Test results published in ChEMBL document CHEMBL1138972, “Discovery of potent CRTh2 (DP2) receptor antagonists” (Bioorg Med Chem Lett, 2006).
Active and inactive are the calls of the source. The rule behind the calls is not given here.

Assays:
[1] = target: T1, Prostaglandin D2 receptor (Homo sapiens) (UniProt Q13258); assay: Binding affinity to DP1 receptor in HEK293 cells by radioligand binding assay; type: cell-based
T1 sequence (whole entry): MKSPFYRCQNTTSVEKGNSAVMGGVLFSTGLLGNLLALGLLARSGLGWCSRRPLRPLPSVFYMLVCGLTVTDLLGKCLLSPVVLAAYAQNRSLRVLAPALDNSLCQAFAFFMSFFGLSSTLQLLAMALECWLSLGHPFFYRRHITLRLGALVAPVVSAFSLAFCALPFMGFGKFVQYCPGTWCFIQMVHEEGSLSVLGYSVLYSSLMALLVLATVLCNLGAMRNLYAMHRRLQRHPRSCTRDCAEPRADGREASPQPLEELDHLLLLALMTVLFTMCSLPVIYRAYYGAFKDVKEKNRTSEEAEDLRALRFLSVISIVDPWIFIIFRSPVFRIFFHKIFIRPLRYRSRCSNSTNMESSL

[2] = target: T2, Prostaglandin D2 receptor 2 (Homo sapiens, UniProt Q9Y5Y4); assay: Displacement of [3H]PGD2 from human CRTh2 expressed in HEK293 cells; type: cell-based
T2 sequence (Q9Y5Y4 whole entry): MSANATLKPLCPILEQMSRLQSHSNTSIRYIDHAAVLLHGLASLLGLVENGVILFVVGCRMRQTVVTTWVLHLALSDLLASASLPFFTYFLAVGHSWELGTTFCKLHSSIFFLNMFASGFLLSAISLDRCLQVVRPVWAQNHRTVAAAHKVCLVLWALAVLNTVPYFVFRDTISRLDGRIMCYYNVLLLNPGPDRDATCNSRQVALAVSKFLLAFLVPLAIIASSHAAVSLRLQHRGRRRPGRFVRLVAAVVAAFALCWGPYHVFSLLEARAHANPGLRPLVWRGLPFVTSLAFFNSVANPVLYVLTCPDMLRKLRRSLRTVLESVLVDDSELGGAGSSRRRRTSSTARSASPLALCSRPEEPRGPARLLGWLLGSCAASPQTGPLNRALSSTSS

Homo sapiens = species: Homo sapiens; assay: Protein binding in human plasma; conditions: read-out: PPB (converted)
[3] = target: Voltage-gated inwardly rectifying potassium channel KCNH2 (Homo sapiens, UniProt Q12809); assay: Binding affinity to hERG in HEK293 cells by radioligand binding assay; type: cell-based
Sequence of Voltage-gated inwardly rectifying potassium channel KCNH2 (Q12809 whole entry): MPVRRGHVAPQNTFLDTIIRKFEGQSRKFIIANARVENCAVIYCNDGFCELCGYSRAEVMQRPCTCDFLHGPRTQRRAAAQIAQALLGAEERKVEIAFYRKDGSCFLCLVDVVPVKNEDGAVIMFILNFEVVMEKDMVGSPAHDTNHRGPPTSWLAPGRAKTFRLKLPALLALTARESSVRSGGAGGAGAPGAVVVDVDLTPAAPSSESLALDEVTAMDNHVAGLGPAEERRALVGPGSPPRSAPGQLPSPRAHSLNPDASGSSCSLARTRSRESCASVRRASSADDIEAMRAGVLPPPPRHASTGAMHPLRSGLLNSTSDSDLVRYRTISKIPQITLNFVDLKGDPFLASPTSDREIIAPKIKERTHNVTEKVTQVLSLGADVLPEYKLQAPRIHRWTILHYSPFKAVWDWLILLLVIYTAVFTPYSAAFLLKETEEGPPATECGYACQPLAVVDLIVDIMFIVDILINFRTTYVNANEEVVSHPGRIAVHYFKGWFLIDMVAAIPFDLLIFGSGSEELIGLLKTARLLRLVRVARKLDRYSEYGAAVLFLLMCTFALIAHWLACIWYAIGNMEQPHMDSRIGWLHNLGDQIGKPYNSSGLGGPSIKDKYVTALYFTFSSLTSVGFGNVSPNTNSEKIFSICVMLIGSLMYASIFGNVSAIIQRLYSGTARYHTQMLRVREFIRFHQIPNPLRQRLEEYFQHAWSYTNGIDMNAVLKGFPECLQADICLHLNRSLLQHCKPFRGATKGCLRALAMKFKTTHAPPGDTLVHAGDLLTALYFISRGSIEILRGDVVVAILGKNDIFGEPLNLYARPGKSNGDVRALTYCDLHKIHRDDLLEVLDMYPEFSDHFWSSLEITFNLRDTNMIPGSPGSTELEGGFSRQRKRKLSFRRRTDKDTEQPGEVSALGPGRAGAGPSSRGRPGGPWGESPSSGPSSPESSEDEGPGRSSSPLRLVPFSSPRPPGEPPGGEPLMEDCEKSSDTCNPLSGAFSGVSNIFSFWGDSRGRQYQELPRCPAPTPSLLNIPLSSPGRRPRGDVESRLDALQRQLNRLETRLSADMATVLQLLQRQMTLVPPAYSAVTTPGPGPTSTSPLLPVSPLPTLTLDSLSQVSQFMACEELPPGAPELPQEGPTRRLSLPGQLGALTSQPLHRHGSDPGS

physchem = conditions: buffer, pH 7.4
Description: Lipophilicity, LogD at pH 7.4

[4] = target: T3, Prostaglandin D2 receptor 2 (Homo sapiens) (UniProt Q9Y5Y4); assay: Agonist activity at CRTh2 receptor; type: functional
T3 sequence (whole entry): T2 sequence (Q9Y5Y4 whole entry)

[5] = Intrinsic clearance in rat hepatocytes per 10^6 cells
[6] = Bioavailability in dog; type: ADME, organism-based, Canis lupus familiaris; conditions: in vivo
[7] = Intrinsic clearance in human hepatocytes per 10^6 cells
[8] = (§1) Half life in rat; type: ADME, organism-based; conditions: in vivo
[9] = Protein binding in rat plasma; type: ADME, cell-free; conditions: read-out: PPB (converted)
[10] = target: Prostaglandin G/H synthase 1 (Homo sapiens, UniProt P23219); assay: Inhibition of COX1
Sequence of Prostaglandin G/H synthase 1 (P23219 whole entry): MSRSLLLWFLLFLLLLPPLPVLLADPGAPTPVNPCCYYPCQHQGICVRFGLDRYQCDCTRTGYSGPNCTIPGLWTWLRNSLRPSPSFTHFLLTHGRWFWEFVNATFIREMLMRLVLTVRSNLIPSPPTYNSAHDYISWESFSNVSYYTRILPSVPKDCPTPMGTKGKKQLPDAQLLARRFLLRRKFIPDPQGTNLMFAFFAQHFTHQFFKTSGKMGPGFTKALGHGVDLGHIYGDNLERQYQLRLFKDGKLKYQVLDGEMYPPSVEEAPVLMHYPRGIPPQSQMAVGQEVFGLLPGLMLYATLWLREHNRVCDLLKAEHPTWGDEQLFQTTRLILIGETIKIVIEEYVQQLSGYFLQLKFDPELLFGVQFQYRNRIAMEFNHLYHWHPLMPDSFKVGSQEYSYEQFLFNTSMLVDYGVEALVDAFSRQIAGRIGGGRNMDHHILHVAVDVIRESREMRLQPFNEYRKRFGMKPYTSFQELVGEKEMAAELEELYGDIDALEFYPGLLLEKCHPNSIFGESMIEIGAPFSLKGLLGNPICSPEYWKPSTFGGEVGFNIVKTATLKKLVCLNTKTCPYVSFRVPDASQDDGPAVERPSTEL

[11] = (§2) Volume of distribution in rat; type: ADME, organism-based; conditions: in vivo, read-out: Vss
[12] = Clearance in rat; type: ADME, organism-based; conditions: in vivo
[13] = Half life in dog; type: ADME, organism-based, Canis lupus familiaris; conditions: in vivo
[14] = Bioavailability in rat; type: ADME, organism-based; conditions: in vivo
[15] = Clearance in dog; type: ADME, organism-based, Canis lupus familiaris; conditions: in vivo
Rattus norvegicus [16] = species: Rattus norvegicus; assay: as §1; type: ADME, organism-based; conditions: in vivo
[17] = target: Aldo-keto reductase family 1 member B1 (Rattus norvegicus, UniProt P07943); assay: Inhibition at rat aldose reductase
Cytochrome P450 2C19 = Cytochrome P450 2C19 (Homo sapiens, UniProt P33261); assay: Inhibition at recombinant human CYP2C19; type: ADME
Sequence of Cytochrome P450 2C19 (P33261 whole entry): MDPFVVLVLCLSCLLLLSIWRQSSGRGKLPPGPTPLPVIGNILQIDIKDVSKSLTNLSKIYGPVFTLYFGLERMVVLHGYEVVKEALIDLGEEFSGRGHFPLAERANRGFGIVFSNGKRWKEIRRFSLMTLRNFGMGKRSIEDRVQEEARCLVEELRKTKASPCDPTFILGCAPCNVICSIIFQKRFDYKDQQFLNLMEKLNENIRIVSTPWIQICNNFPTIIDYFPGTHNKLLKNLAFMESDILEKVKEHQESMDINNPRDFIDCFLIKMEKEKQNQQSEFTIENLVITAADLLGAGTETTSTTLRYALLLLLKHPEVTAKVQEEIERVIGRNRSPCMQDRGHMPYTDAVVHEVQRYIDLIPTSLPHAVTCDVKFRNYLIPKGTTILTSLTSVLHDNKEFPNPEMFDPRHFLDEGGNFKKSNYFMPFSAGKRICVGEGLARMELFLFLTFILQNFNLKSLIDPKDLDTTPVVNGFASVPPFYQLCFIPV

Cytochrome P450 2C9 = Cytochrome P450 2C9 (Homo sapiens, UniProt P11712); assay: Inhibition at CYP2C9; type: ADME
Sequence of Cytochrome P450 2C9 (P11712 whole entry): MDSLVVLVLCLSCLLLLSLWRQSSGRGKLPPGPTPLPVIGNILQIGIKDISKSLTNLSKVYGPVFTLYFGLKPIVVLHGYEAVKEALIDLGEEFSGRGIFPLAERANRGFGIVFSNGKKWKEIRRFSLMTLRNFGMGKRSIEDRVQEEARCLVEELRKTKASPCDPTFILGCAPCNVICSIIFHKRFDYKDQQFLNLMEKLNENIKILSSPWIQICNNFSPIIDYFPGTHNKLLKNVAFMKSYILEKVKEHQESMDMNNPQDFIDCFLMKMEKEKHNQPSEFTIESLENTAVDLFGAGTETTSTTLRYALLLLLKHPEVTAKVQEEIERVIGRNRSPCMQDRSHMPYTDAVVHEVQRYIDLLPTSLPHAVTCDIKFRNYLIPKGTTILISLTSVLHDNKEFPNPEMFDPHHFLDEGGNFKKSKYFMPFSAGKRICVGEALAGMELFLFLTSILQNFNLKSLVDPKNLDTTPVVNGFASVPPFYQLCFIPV

[18] = target: T4, Prostaglandin G/H synthase 2 (Homo sapiens, UniProt P35354); assay: Inhibition of COX2
T4 sequence (P35354 whole entry): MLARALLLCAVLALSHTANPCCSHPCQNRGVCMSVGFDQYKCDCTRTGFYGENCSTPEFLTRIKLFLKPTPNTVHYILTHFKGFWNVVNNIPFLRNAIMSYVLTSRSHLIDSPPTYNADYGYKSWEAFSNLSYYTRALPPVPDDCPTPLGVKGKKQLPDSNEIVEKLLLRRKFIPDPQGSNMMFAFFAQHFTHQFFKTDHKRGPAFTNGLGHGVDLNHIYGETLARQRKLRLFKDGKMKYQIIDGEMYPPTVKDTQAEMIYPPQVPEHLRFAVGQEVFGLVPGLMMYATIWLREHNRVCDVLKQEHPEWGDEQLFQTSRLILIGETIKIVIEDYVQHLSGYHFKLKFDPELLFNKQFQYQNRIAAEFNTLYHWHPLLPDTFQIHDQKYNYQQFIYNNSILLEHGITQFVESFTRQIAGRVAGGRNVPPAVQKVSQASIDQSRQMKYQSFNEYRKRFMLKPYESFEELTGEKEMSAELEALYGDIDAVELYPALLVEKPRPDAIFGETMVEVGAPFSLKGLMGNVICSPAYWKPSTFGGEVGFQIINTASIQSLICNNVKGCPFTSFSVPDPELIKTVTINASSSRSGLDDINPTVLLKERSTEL

[19] = Volume of distribution in dog; type: ADME, organism-based, Canis lupus familiaris; conditions: in vivo, read-out: Vss
Rattus norvegicus [20] = species: Rattus norvegicus; assay: as §2; type: ADME, organism-based; conditions: in vivo
[21] = target: Sodium-dependent serotonin transporter (Rattus norvegicus, UniProt P31652); assay: Inhibition at rat serotonin transporter
Sequence of Sodium-dependent serotonin transporter (P31652 whole entry): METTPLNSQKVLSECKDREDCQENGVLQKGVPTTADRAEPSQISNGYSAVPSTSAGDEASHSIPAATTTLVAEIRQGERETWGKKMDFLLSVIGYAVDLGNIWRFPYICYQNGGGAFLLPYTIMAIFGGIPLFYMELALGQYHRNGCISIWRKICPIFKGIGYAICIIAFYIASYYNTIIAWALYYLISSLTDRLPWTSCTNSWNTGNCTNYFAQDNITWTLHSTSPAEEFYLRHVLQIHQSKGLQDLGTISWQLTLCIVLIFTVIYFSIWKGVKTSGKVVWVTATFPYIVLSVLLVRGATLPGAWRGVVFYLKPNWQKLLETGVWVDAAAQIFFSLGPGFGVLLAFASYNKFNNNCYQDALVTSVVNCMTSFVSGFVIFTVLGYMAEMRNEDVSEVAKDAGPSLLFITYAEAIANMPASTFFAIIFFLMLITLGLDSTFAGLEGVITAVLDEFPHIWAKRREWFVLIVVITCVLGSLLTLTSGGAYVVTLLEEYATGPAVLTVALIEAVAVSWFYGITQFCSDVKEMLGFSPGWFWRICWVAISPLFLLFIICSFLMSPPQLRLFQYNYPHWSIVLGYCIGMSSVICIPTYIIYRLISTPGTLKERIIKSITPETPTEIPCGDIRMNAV

[22] = target: T3, Prostaglandin D2 receptor 2 (Homo sapiens); assay: Activity at CRTh2 measured as calcium flux changes in HEK293 cells by FLIPR; type: functional, cell-based

SMILES	Activity [1] [µM]	IC50 [2] [nM]	fraction unbound (Homo sapiens)	Activity [3] [µM]	logD (physchem)	Activity [4]	hepatocyte CLint [5] [µL/min/1e6 cells]	hepatocyte CLint [7] [µL/min/1e6 cells]	also measured
Cc1ccc2c(c1)c(-c1ccnc3cc(C(F)(F)F)ccc13)c(C)n2CC(=O)O	> 6	5.4	0.004	> 6	1.8	inactive	–	–	–
Cc1ccc2c(c1)c(-c1cc(C)nc3ccccc13)c(C)n2CC(=O)O	> 6	18	0.004	> 6	2.9	inactive	5	–	–
Cc1ccc2c(-c3ccnc4cc(Cl)ccc34)c(C)n(CC(=O)O)c2c1	> 6	125	–	> 6	–	inactive	–	–	–
Cc1ccc2c(c1)c(-c1ccnc3c(S(C)(=O)=O)cccc13)c(C)n2CC(=O)O	> 6	23	0.064	> 6	0.3	inactive	–	–	bioavailability [6]: 5%
Cc1ccc2c(c1)c(-c1ccnc3ccccc13)c(C)n2CC(=O)O	> 6	21	–	> 6	–	inactive	10.7	3	–
Cc1ccc2c(c1)c(-c1ccnc3cc(Cl)ccc13)c(C)n2CC(=O)O	> 6	8	0.002	> 6	1.6	inactive	6	3.8	half-life [8]: 6.7 h; fraction unbound [9]: 0.02; IC50 [10]: 400 nM; Vd [11]: 1.4 L/kg; clearance [12]: 6 mL/min/kg
Cc1ccc2c(c1)c(-c1ccnc3c(F)cccc13)c(C)n2CC(=O)O	> 6	7.1	0.009	> 6	0.5	inactive	< 1	1.6	–
Cc1ccc2c(c1)c(-c1ccnc3c(Cl)cccc13)c(C)n2CC(=O)O	> 6	2.3	0.006	> 6	1.3	inactive	< 3	2	half-life [13]: 2.4 h
Cc1ccc2c(c1)c(-c1ccnc3c(C)cccc13)c(C)n2CC(=O)O	> 6	2.6	–	> 6	–	inactive	5.5	1.9	bioavailability [14]: 76%; clearance [15]: 1 mL/min/kg; T1/2 (Rattus norvegicus [16]): 1.7 h; fraction unbound [9]: 0.02; IC50 [17]: 150 nM; half-life [13]: 5.3 h; IC50 (Cytochrome P450 2C19): 2500 nM; IC50 (Cytochrome P450 2C9): 5000 nM; IC50 [10]: 3000 nM; IC50 [18]: 3000 nM; Vd [19]: 0.2 L/kg; Vss (Rattus norvegicus [20]): 1.4 L/kg; bioavailability [6]: 100%; IC50 [21]: 2000 nM
Cc1ccc2c(c1)c(-c1ccnc3c(C(F)(F)F)cccc13)c(C)n2CC(=O)O	> 6	6	0.004	> 6	1.3	inactive	–	–	–
Cc1ccc2c(c1)c(-c1ccnc3ccc(C(F)(F)F)cc13)c(C)n2CC(=O)O	> 6	68	–	> 6	1.8	inactive	16	–	–
Cc1ccc2c(c1)c(-c1ccnc3c(C#N)cccc13)c(C)n2CC(=O)O	> 6	18	–	> 6	–	inactive	< 3	–	–
COc1ccc2c(c1)c(-c1ccnc3cc(Cl)ccc13)c(C)n2CC(=O)O	> 6	50	0.003	> 6	–	inactive	5	–	–
COc1ccc2c(c1)c(CC(=O)O)c(C)n2-c1ccnc2cc(Cl)ccc12	> 6	180	–	> 6	1.7	inactive	6.5	1.4	bioavailability [14]: 62%; half-life [8]: 2.2 h; IC50 (Cytochrome P450 2C19): 1600 nM; Activity ([22]; filed as antagonist): Antagonist; Vd [11]: 2.3 L/kg; clearance [12]: 11 mL/min/kg
COc1cccc2c(-c3c(C)n(CC(=O)O)c4ccc(C)cc34)ccnc12	> 6	11	–	> 6	0.5	inactive	7	–	bioavailability [6]: 13%
Cc1c(CC(=O)O)c2ccccc2n1-c1ccncn1	> 6	5200	–	> 6	–	inactive	–	–	Activity ([22]; filed as partial agonist): Partial agonist
